# Reference: paper PMC9573813 (Molecular Diversity, 2022)
# System: L. donovani intramacrophage amastigotes
# Assay: not given
# Type: cell-based, Leishmania donovani
# Conditions: CC50 RAW 264.7 / IC50 intramacrophage amastigotes
row,SMILES,SI (CC50/IC50)
1,"Cc1nn(Cc2ccc(O)c(C=O)c2)c(=O)[nH]c1=O [Compound 10, 2-Hydroxy-5-((6-methyl-3,5-dioxo-4,5-dihydro-1,2,4-triazin-2(3H)-yl)methyl) benzaldehyde]",1.87

# System: not listed separately
# Assay: Cytotoxicity, cell growth
# Type: cell-based
# Conditions: human, human embryonic lung (HEL) fibroblasts
row,SMILES,CC50
1,"Nc1nc2c(ncn2COCCO)c(=O)[nH]1 [Acyclovir (ACV), Acyclovir]",> 444 µM
2,"Nc1ccn(C[C@@H](CO)OCP(=O)(O)O)c(=O)n1 [Cidofovir (CDV), Cidofovir]",> 317 µM
3,"Nc1nc(O)c2ncn(COC(CO)CO)c2n1 [Ganciclovir (GCV), Ganciclovir]",> 394 µM

# System: not listed separately
# Assay: Cytotoxicity evaluation on RAW 264.7 macrophages
# Type: cell-based
# Conditions: mouse
row,SMILES,CC50
1,"O=Cc1cc(Cn2ccc(=O)[nH]c2=O)ccc1O [Compound 7, 5-((2,4-Dioxo-3,4-dihydropyrimidin-1(2H)-yl)methyl)-2-hydroxybenzaldehyde]",> 100 µM
2,"Cc1cn(Cc2ccc(O)c(C=O)c2)c(=O)[nH]c1=O [Compound 8, 2-Hydroxy-5-((5-methyl-2,4-dioxo-3,4-dihydropyrimidin-1(2H)-yl)methyl) benzaldehyde]",> 100 µM
3,"O=Cc1cc(Cn2cc(F)c(=O)[nH]c2=O)ccc1O [Compound 9, 5-((5-Fluoro-2,4-dioxo-3,4-dihydropyrimidin-1(2H)-yl)methyl)-2-hydroxybenzaldehyde]",> 100 µM
4,"Cc1nn(Cc2ccc(O)c(C=O)c2)c(=O)[nH]c1=O [Compound 10, 2-Hydroxy-5-((6-methyl-3,5-dioxo-4,5-dihydro-1,2,4-triazin-2(3H)-yl)methyl) benzaldehyde]",56.1 ± 16.8 µM
5,"CCCCCCCCCCCCCCCCOP(=O)([O-])OCC[N+](C)(C)C [Miltefosine, reference compound]",52.2 ± 11.1 µM
